Source: publication PMC6364417, “Kinase inhibitor library screening identifies synergistic drug combinations effective in sensitive and resistant melanoma cells” (Journal of Experimental & Clinical Cancer Research : CR, 2019)
Counter-ions that a name gives are not always drawn.

What was measured:
Assay in all cases: Kinase inhibitor library screening, PrestoBlue cell viability, 1 or 10 μM, 72 h
[1] = system: IGR37-GP cells (Dabrafenib-resistant); conditions: for cell viability (kinase inhibitor library screening): IGR37 GP; for viability at 1 µM / viability at 10 µM: Homo sapiens, IGR-37, 72 h; for viability at 1 µM: read-out: cell viability, IGR37 GP, 1μΜ; for viability at 10 µM: read-out: cell viability, IGR37 GP, 10μΜ
[2] = system: A375-XP cells (Vemurafenib-resistant); conditions: for cell viability (kinase inhibitor library screening): A375 XP; for viability at 1 µM / viability at 10 µM: Homo sapiens, A-375, 72 h; for viability at 1 µM: read-out: cell viability, A375 XP, 1μΜ; for viability at 10 µM: read-out: cell viability, A375 XP, 10μΜ
501Mel cells (parental) = conditions: for cell viability (kinase inhibitor library screening): 501Mel Parental; for viability at 1 µM / viability at 10 µM: Homo sapiens; for viability at 1 µM: read-out: cell viability, 501Mel Parental, 1μΜ; for viability at 10 µM: read-out: cell viability, 501Mel Parental, 10μΜ
Outline: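 Parental cells and Vemurafenib-resistant (XP) or Dabrafenib-resistant (GP) derivatives were treated with library kinase inhibitors at 1 and 10 μM for 72 h. Viability measured by PrestoBlue and expressed as % of untreated cells, at least in duplicate.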

IGR37 cells (parental) = conditions: for cell viability (kinase inhibitor library screening): IGR37 Parental; for viability at 1 µM / viability at 10 µM: Homo sapiens, IGR-37, 72 h; for viability at 1 µM: read-out: cell viability, IGR37 Parental, 1μΜ; for viability at 10 µM: read-out: cell viability, IGR37 Parental, 10μΜ
[3] = system: 501Mel-GP cells (Dabrafenib-resistant); conditions: for cell viability (kinase inhibitor library screening): 501Mel GP; for viability at 1 µM / viability at 10 µM: Homo sapiens; for viability at 1 µM: read-out: cell viability, 501Mel GP, 1μΜ; for viability at 10 µM: read-out: cell viability, 501Mel GP, 10μΜ
[4] = system: A375-GP cells (Dabrafenib-resistant); conditions: for cell viability (kinase inhibitor library screening): A375 GP; for viability at 1 µM / viability at 10 µM: Homo sapiens, A-375, 72 h; for viability at 1 µM: read-out: cell viability, A375 GP, 1μΜ; for viability at 10 µM: read-out: cell viability, A375 GP, 10μΜ
A375 cells (parental) = conditions: for cell viability (kinase inhibitor library screening): A375 Parental; for viability at 1 µM / viability at 10 µM: Homo sapiens, A-375, 72 h; for viability at 1 µM: read-out: cell viability, A375 Parental, 1μΜ; for viability at 10 µM: read-out: cell viability, A375 Parental, 10μΜ
[5] = system: IGR37-XP cells (Vemurafenib-resistant); conditions: for cell viability (kinase inhibitor library screening): IGR37 XP; for viability at 1 µM / viability at 10 µM: Homo sapiens, IGR-37, 72 h; for viability at 1 µM: read-out: cell viability, IGR37 XP, 1μΜ; for viability at 10 µM: read-out: cell viability, IGR37 XP, 10μΜ
[6] = system: 501Mel-XP cells (Vemurafenib-resistant); conditions: for cell viability (kinase inhibitor library screening): 501Mel XP; for viability at 1 µM / viability at 10 µM: Homo sapiens; for viability at 1 µM: read-out: cell viability, 501Mel XP, 1μΜ; for viability at 10 µM: read-out: cell viability, 501Mel XP, 10μΜ

**Q.** What does the source list for `CN1CC[C@H](c2c(O)cc(O)c3c(=O)cc(-c4ccccc4Cl)oc23)[C@H](O)C1` [Flavopiridol hydrochloride]?
**A.** cell viability (kinase inhibitor library screening) ([1]; 1μΜ, 72 h): 4.5%; cell viability (kinase inhibitor library screening) ([1]; 10μΜ, 72 h): 3.8%; cell viability (kinase inhibitor library screening) ([2]; 1μΜ, 72 h): 5.6%; cell viability (kinase inhibitor library screening) ([2]; 10μΜ, 72 h): 5.1%; cell viability (kinase inhibitor library screening) (501Mel cells (parental); 1μΜ, 72 h): 1.1%; cell viability (kinase inhibitor library screening) (501Mel cells (parental); 10μΜ, 72 h): 1.3%; cell viability (kinase inhibitor library screening) (IGR37 cells (parental); 1μΜ, 72 h): 2.2%; cell viability (kinase inhibitor library screening) (IGR37 cells (parental); 10μΜ, 72 h): 2.2%; cell viability (kinase inhibitor library screening) ([3]; 1μΜ, 72 h): 0.662%; cell viability (kinase inhibitor library screening) ([3]; 10μΜ, 72 h): 0.4%; cell viability (kinase inhibitor library screening) ([4]; 1μΜ, 72 h): 4.6%; cell viability (kinase inhibitor library screening) ([4]; 10μΜ, 72 h): 3.0%; cell viability (kinase inhibitor library screening) (A375 cells (parental); 10μΜ, 72 h): 7.2%; cell viability (kinase inhibitor library screening) (A375 cells (parental); 1μΜ, 72 h): 7.0%; cell viability (kinase inhibitor library screening) ([5]; 1μΜ, 72 h): 2.9%; cell viability (kinase inhibitor library screening) ([5]; 10μΜ, 72 h): 3.2%; cell viability (kinase inhibitor library screening) ([6]; 1μΜ, 72 h): 0.473%; cell viability (kinase inhibitor library screening) ([6]; 10μΜ, 72 h): 0.3%

**Q.** Which results are given for `Cc1cc2c(F)c(Oc3ncnn4cc(OC[C@@H](C)OC(=O)[C@H](C)N)c(C)c34)ccc2[nH]1` [Brivanib alaninate (BMS-582664)]?
**A.** cell viability (kinase inhibitor library screening) ([1]; 1μΜ, in %): 99.8; cell viability (kinase inhibitor library screening) ([1]; 10μΜ, in %): 95.3; cell viability (kinase inhibitor library screening) ([2]; 1μΜ, in %): 105.2; cell viability (kinase inhibitor library screening) ([2]; 10μΜ, in %): 81.3; cell viability (kinase inhibitor library screening) (501Mel cells (parental); 1μΜ, in %): 99.4; cell viability (kinase inhibitor library screening) (501Mel cells (parental); 10μΜ, in %): 91.7; cell viability (kinase inhibitor library screening) (IGR37 cells (parental); 1μΜ, in %): 107.1; cell viability (kinase inhibitor library screening) (IGR37 cells (parental); 10μΜ, in %): 96.2; cell viability (kinase inhibitor library screening) ([3]; 1μΜ, in %): 107.2; cell viability (kinase inhibitor library screening) ([3]; 10μΜ, in %): 88.2; cell viability (kinase inhibitor library screening) ([4]; 1μΜ, in %): 98.8; cell viability (kinase inhibitor library screening) ([4]; 10μΜ, in %): 80.1; cell viability (kinase inhibitor library screening) (A375 cells (parental); 1μΜ, in %): 104.1; cell viability (kinase inhibitor library screening) (A375 cells (parental); 10μΜ, in %): 82.8; cell viability (kinase inhibitor library screening) ([5]; 1μΜ, in %): 99.9; cell viability (kinase inhibitor library screening) ([5]; 10μΜ, in %): 74.9; cell viability (kinase inhibitor library screening) ([6]; 1μΜ, in %): 97.0; cell viability (kinase inhibitor library screening) ([6]; 10μΜ, in %): 83.1

**Q.** What does the source list for `Cc1cc(Nc2cc(CN3CCOCC3)c3nc(C)c(Cc4ccc(Cl)cc4F)n3n2)n[nH]1` [LY2784544]?
**A.** viability at 1 µM [1]: 90.3%; viability at 10 µM [1]: 53.2%; viability at 1 µM [2]: 102%; viability at 10 µM [2]: 35.9%; viability at 1 µM (501Mel cells (parental); 72 h): 89.9%; viability at 10 µM (501Mel cells (parental); 72 h): 67.3%; viability at 1 µM (IGR37 cells (parental)): 99.2%; viability at 10 µM (IGR37 cells (parental)): 87%; viability at 1 µM ([3]; 72 h): 99.1%; viability at 10 µM ([3]; 72 h): 49%; viability at 1 µM [4]: 101%; viability at 10 µM [4]: 26.9%; viability at 1 µM (A375 cells (parental)): 94.9%; viability at 10 µM (A375 cells (parental)): 28.1%; viability at 1 µM [5]: 91.6%; viability at 10 µM [5]: 17.9%; viability at 1 µM ([6]; 72 h): 87.1%; viability at 10 µM ([6]; 72 h): 27.9%

**Q.** For `Cn1c(=O)c(F)c(Nc2ccc(I)cc2F)c2c(=O)n(C[C@@H](O)CO)cnc21` [TAK-733], which viability at 1 µM [1] is on record?
**A.** Its viability at 1 µM is 65.6%.

**Q.** What about the viability at 10 µM [1] of the same compound?
**A.** The viability at 10 µM was 58.6%.

**Q.** What about the viability at 1 µM [2] of the same compound?
**A.** Its viability at 1 µM is 10.7%.

**Q.** What about the viability at 10 µM [2] of the same compound?
**A.** Its viability at 10 µM is 2.7%.

**Q.** And the viability at 1 µM (501Mel cells (parental); 72 h)?
**A.** The viability at 1 µM was 54%.

**Q.** What about the viability at 10 µM (501Mel cells (parental); 72 h) of the same compound?
**A.** The viability at 10 µM was 57.9%.

**Q.** And the viability at 1 µM (IGR37 cells (parental))?
**A.** The viability at 1 µM was 36.5%.

**Q.** And the viability at 10 µM (IGR37 cells (parental))?
**A.** The viability at 10 µM was 44%.

**Q.** And the viability at 1 µM ([3]; 72 h)?
**A.** Its viability at 1 µM is 90.9%.

**Q.** What about the viability at 10 µM ([3]; 72 h) of the same compound?
**A.** The viability at 10 µM was 72.7%.

**Q.** What about the viability at 1 µM [4] of the same compound?
**A.** Its viability at 1 µM is 17.6%.

**Q.** What about the viability at 10 µM [4] of the same compound?
**A.** Its viability at 10 µM is 16.5%.

**Q.** What about the viability at 1 µM (A375 cells (parental)) of the same compound?
**A.** The viability at 1 µM was 18.6%.

**Q.** And the viability at 10 µM (A375 cells (parental))?
**A.** The viability at 10 µM was 18.6%.

**Q.** And the viability at 1 µM [5]?
**A.** The viability at 1 µM was 52.9%.

**Q.** And the viability at 10 µM [5]?
**A.** Its viability at 10 µM is 22%.

**Q.** And the viability at 1 µM ([6]; 72 h)?
**A.** The viability at 1 µM was 80.5%.

**Q.** And the viability at 10 µM ([6]; 72 h)?
**A.** The viability at 10 µM was 58.7%.
